Measurements taken from patent publication US9511073B2, “Aromatic amides and uses thereof” (TAXIS Pharmaceuticals, Inc., priority 2011, dated 2016).
Values after ≈ are worked out from the molar mass of the structure shown.

What follows are compounds tested on Staphylococcus aureus (Isolate ID ATCC 29213) (assay: Bacterial assay: MIC by broth microdilution or agar dilution (CLSI), S. aureus ATCC 29213). Settings: S. aureus (ATCC29213).
Type: cell-based
Summary of the method: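 Activity is binned (A ≤0.25 μg/mL; B >0.25–1.0; C >1.0–16; D >16 μg/mL) from MICs determined per CLSI by broth microdilution or agar dilution, on S. aureus ATCC 29213 plus an FtsZ-G196A mutant strain.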

SMILES | S. aureus MIC (μg/mL) Activity Range
NC(=O)c1c(F)ccc(OC(CC(O)CO)c2nc(-c3ccc(C(F)(F)F)cc3)c(Br)o2)c1F (stereo not shown) [Compound 157, 3-(1-(5-bromo-4-(4-(trifluoromethyl)phenyl)oxazol-2-yl)-3,4-dihydroxybutoxy)-2,6-difluorobenzamide] | B (activity>0.25 μg/mL-1.0 μg/mL)

Same assay, conditions: Staphylococcus aureus, ATCC29213, read-out: S. aureus MIC (μg/mL) Activity Range, S. aureus (ATCC29213)

SMILES | MIC
CNc1ccc(-c2coc(C(CO)Oc3ccc(F)c(C(N)=O)c3F)n2)cn1 (stereo not shown) [Compound 220, 2,6-difluoro-3-(2-hydroxy-1-(4-(6-(methylamino)pyridin-3-yl)oxazol-2-yl)ethoxy)benzamide] | > 16 µg/mL
COc1cnc(-c2csc(C(CO)Oc3ccc(F)c(C(N)=O)c3F)n2)cn1 (stereo not shown) [Compound 261, 2,6-difluoro-3-(2-hydroxy-1-(4-(5-methoxypyrazin-2-yl)thiazol-2-yl)ethoxy)benzamide] | 1 to 16 µg/mL (≈ 2.45 to 39.2 µM)
Cn1cnc(CNC(=O)OCC(Oc2ccc(F)c(C(N)=O)c2F)c2nc(-c3ccc(C(F)(F)F)cc3)c(Br)o2)c1 (stereo not shown) [Compound 203, 2-(5-bromo-4-(4-(trifluoromethyl)phenyl)oxazol-2-yl)-2-(3-carbamoyl-2,4-difluorophenoxy)ethyl ((1-methyl-1H-imidazol-4-yl)methyl)carbamate] | 0.25 to 1 µg/mL (≈ 0.388 to 1.55 µM)
COC(=O)c1ccc(-c2nc(C(CO)Oc3ccc(F)c(C(N)=O)c3F)oc2Br)cc1 (stereo not shown) [Compound 246, methyl 4-(5-bromo-2-(1-(3-carbamoyl-2,4-difluorophenoxy)-2-hydroxyethyl)oxazol-4-yl)benzoate] | 1 to 16 µg/mL (≈ 2.01 to 32.2 µM)
NC(=O)c1c(F)ccc(O[C@H](CO)c2nc(-c3ccc(OC(F)F)cc3)co2)c1F [Compound 274B, (R)-3-(1-(4-(4-(difluoromethoxy)phenyl)oxazol-2-yl)-2-hydroxyethoxy)-2,6-difluorobenzamide] | 1 to 16 µg/mL (≈ 2.35 to 37.5 µM)
NC(=O)c1c(F)ccc(OC(COC(=O)NCc2cccc[n+]2[O-])c2nc(-c3ccc(C(F)(F)F)cc3)c(Br)o2)c1F (stereo not shown) [Compound 173, 2-((((2-(5-bromo-4-(4-(trifluoromethyl)phenyl)oxazol-2-yl)-2-(3-carbamoyl-2,4-difluorophenoxy)ethoxy)carbonyl)amino)methyl)pyridine 1-oxide] | 0.25 to 1 µg/mL (≈ 0.38 to 1.52 µM)
COc1ncc(-c2nc([C@@H](CO)Oc3ccc(F)c(C(N)=O)c3F)oc2Br)cn1 [Compound 257B, (R)-3-(1-(5-bromo-4-(2-methoxypyrimidin-5-yl)oxazol-2-yl)-2-hydroxyethoxy)-2,6-difluorobenzamide] | > 16 µg/mL
CC(Oc1ccc(F)c(C(N)=O)c1F)c1nc(-c2ccc(C(F)(F)F)cc2)c(Cl)o1 (stereo not shown) [Compound 32] | 0.25 to 1 µg/mL (≈ 0.56 to 2.24 µM)
NC(=O)c1c(F)ccc(OC(CO)c2nc(C3CCOCC3)co2)c1F (stereo not shown) [Compound 182, 2,6-difluoro-3-(2-hydroxy-1-(4-(tetrahydro-2H-pyran-4-yl)oxazol-2-yl)ethoxy)benzamide] | > 16 µg/mL
NC(=O)c1c(F)ccc(OC(CO)c2nc(-c3ccc(Cl)cc3)cs2)c1F (stereo not shown) [Compound 13, 3-(1-(4-(4-chlorophenyl)thiazol-2-yl)-2-hydroxyethoxy)-2,6-difluorobenzamide] | 0.25 to 1 µg/mL (≈ 0.609 to 2.43 µM)
NC(=O)c1c(F)ccc(OC(CNC(=O)c2cccnc2)c2nc(-c3ccc(C(F)(F)F)cc3)co2)c1F (stereo not shown) [Compound 293, N-(2-(3-carbamoyl-2,4-difluorophenoxy)-2-(4-(4-(trifluoromethyl)phenyl)oxazol-2-yl)ethyl)nicotinamide] | > 16 µg/mL
COCCOCC(Oc1ccc(F)c(C(N)=O)c1F)c1nc(-c2ccc(C(F)(F)F)cc2)c(Br)o1 (stereo not shown) [Compound 155, 3-(1-(5-bromo-4-(4-(trifluoromethyl)phenyl)oxazol-2-yl)-2-(2-methoxyethoxy)ethoxy)-2,6-difluorobenzamide] | 0.25 to 1 µg/mL (≈ 0.442 to 1.77 µM)
Cc1cc(CNC(=O)OCC(Oc2ccc(F)c(C(N)=O)c2F)c2nc(-c3ccc(C(F)(F)F)cc3)c(Br)o2)ccn1 (stereo not shown) [Compound 200, 2-(5-bromo-4-(4-(trifluoromethyl)phenyl)oxazol-2-yl)-2-(3-carbamoyl-2,4-difluorophenoxy)ethyl ((2-methylpyridin-4-yl)methyl)carbamate] | 0.25 to 1 µg/mL (≈ 0.381 to 1.53 µM)
CN(Cc1cnccn1)C(=O)OCC(Oc1ccc(F)c(C(N)=O)c1F)c1nc(-c2ccc(C(F)(F)F)cc2)c(Br)o1 (stereo not shown) [Compound 192, 2-(5-bromo-4-(4-(trifluoromethyl)phenyl)oxazol-2-yl)-2-(3-carbamoyl-2,4-difluorophenoxy)ethyl methyl(pyrazin-2-ylmethyl)carbamate] | 0.25 to 1 µg/mL (≈ 0.381 to 1.52 µM)
NC(=O)c1c(F)ccc(OC(COC(=O)NCc2ccncc2)c2nc(-c3ccc(C(F)(F)F)cc3)c(Br)o2)c1F (stereo not shown) [Compound 167, 2-(5-bromo-4-(4-(trifluoromethyl)phenyl)oxazol-2-yl)-2-(3-carbamoyl-2,4-difluorophenoxy)ethyl (pyridin-4-ylmethyl)carbamate] | < 0.25 µg/mL
COCCNC(=O)OCC(Oc1ccc(F)c(C(N)=O)c1F)c1nc(-c2ccc(C(F)(F)F)cc2)c(Br)o1 (stereo not shown) [Compound 164, 2-(5-bromo-4-(4-(trifluoromethyl)phenyl)oxazol-2-yl)-2-(3-carbamoyl-2,4-difluorophenoxy)ethyl (2-methoxyethyl)carbamate] | 0.25 to 1 µg/mL (≈ 0.411 to 1.64 µM)
C=CCOC(=O)CCC(=O)OCC(Oc1ccc(F)c(C(N)=O)c1F)c1nc(-c2ccc(C(F)(F)F)cc2)c(Br)o1 (stereo not shown) [Compound 70, allyl (2-(5-bromo-4-(4-(trifluoromethyl)phenyl)oxazol-2-yl)-2-(3-carbamoyl-2,4-difluorophenoxy)ethyl) succinate] | 0.25 to 1 µg/mL

SMILES | MIC
CCOC(=O)C(Oc1ccc(F)c(C(N)=O)c1F)c1nc(-c2ccc(Cl)cc2)cs1 (stereo not shown) [Compound 11, ethyl 2-(3-carbamoyl-2,4-difluorophenoxy)-2-(4-(4-chlorophenyl)thiazol-2-yl)acetate] | < 0.25 µg/mL
CC(Oc1ccc(F)c(C(N)=O)c1F)c1nc(Br)c(-c2ccc(C(F)(F)F)cc2)o1 (stereo not shown) [Compound 123] | 1 to 16 µg/mL (≈ 2.04 to 32.6 µM)
NC(=O)c1c(F)ccc(O[C@H](CO)c2nc(-c3ccc(C(=O)N4CCOCC4)cc3)c(Br)o2)c1F [Compound 255B, (R)-3-(1-(5-bromo-4-(4-(morpholine-4-carbonyl)phenyl)oxazol-2-yl)-2-hydroxyethoxy)-2,6-difluorobenzamide] | > 16 µg/mL
CCc1nc([C@@H](CO)Oc2ccc(F)c(C(N)=O)c2F)oc1Br [Compound 275B, (R)-3-(1-(5-bromo-4-ethyloxazol-2-yl)-2-hydroxyethoxy)-2,6-difluorobenzamide] | > 16 µg/mL
NC(=O)c1c(F)ccc(OC(CO)c2nc(-c3ccc(Br)s3)c(Br)o2)c1F (stereo not shown) [Compound 237, 3-(1-(5-bromo-4-(5-bromothiophen-2-yl)oxazol-2-yl)-2-hydroxyethoxy)-2,6-difluorobenzamide] | 0.25 to 1 µg/mL (≈ 0.477 to 1.91 µM)
Cc1ncccc1CNC(=O)OCC(Oc1ccc(F)c(C(N)=O)c1F)c1nc(-c2ccc(C(F)(F)F)cc2)c(Br)o1 (stereo not shown) [Compound 215, 2-(5-bromo-4-(4-(trifluoromethyl)phenyl)oxazol-2-yl)-2-(3-carbamoyl-2,4-difluorophenoxy)ethyl ((2-methylpyridin-3-yl)methyl)carbamate] | 0.25 to 1 µg/mL (≈ 0.381 to 1.53 µM)
COc1ncccc1CNC(=O)OCC(Oc1ccc(F)c(C(N)=O)c1F)c1nc(-c2ccc(C(F)(F)F)cc2)c(Br)o1 (stereo not shown) [Compound 196, 2-(5-bromo-4-(4-(trifluoromethyl)phenyl)oxazol-2-yl)-2-(3-carbamoyl-2,4-difluorophenoxy)ethyl ((2-methoxypyridin-3-yl)methyl)carbamate] | < 0.25 µg/mL
NC(=O)c1c(F)ccc(OC(CNC(=O)c2ccccn2)c2nc(-c3ccc(C(F)(F)F)cc3)co2)c1F (stereo not shown) [Compound 294, N-(2-(3-carbamoyl-2,4-difluorophenoxy)-2-(4-(4-(trifluoromethyl)phenyl)oxazol-2-yl)ethyl)picolinamide] | > 16 µg/mL
CC(=O)NNC(=O)CCC(Oc1ccc(F)c(C(N)=O)c1F)c1nc(-c2ccc(C(F)(F)F)cc2)c(Br)o1 (stereo not shown) [Compound 92, 3-(4-(2-acetylhydrazinyl)-1-(5-bromo-4-(4-(trifluoromethyl)phenyl)oxazol-2-yl)-4-oxobutoxy)-2,6-difluorobenzamide] | 1 to 16 µg/mL (≈ 1.65 to 26.4 µM)
CN1CCN(C(=O)C(Oc2ccc(F)c(C(N)=O)c2F)c2nc(-c3ccc(Cl)cc3)cs2)CC1 (stereo not shown) [Compound 41, 3-(1-(4-(4-chlorophenyl)thiazol-2-yl)-2-(4-methylpiperazin-1-yl)-2-oxoethoxy)-2,6-difluorobenzamide] | 1 to 16 µg/mL (≈ 1.97 to 31.6 µM)
CNC(=O)CC(Oc1ccc(F)c(C(N)=O)c1F)c1nc(-c2ccc(C(F)(F)F)cc2)c(Br)o1 (stereo not shown) [Compound 87, 3-(1-(5-bromo-4-(4-(trifluoromethyl)phenyl)oxazol-2-yl)-3-(methylamino)-3-oxopropoxy)-2,6-difluorobenzamide] | 0.25 to 1 µg/mL (≈ 0.456 to 1.82 µM)
NC(=O)c1c(F)ccc(OC(CCC(=O)O)c2nc(-c3ccc(C(F)(F)F)cc3)c(Br)o2)c1F (stereo not shown) [Compound 91, 4-(5-bromo-4-(4-(trifluoromethyl)phenyl)oxazol-2-yl)-4-(3-carbamoyl-2,4-difluorophenoxy)butanoic acid] | 1 to 16 µg/mL (≈ 1.82 to 29.1 µM)
C=CCOP(=O)(O)OCC(Oc1ccc(F)c(C(N)=O)c1F)c1nc(-c2ccc(C(F)(F)F)cc2)c(Br)o1 (stereo not shown) [Compound 75, allyl (2-(5-bromo-4-(4-(trifluoromethyl)phenyl)oxazol-2-yl)-2-(3-carbamoyl-2,4-difluorophenoxy)ethyl) hydrogen phosphate] | > 16 µg/mL
CCCc1oc(C(CO)Oc2ccc(F)c(C(N)=O)c2F)nc1-c1ccc(C(F)(F)F)cc1 (stereo not shown) [Compound 67, 2,6-difluoro-3-(2-hydroxy-1-(5-propyl-4-(4-(trifluoromethyl)phenyl)oxazol-2-yl)ethoxy)benzamide] | 1 to 16 µg/mL (≈ 2.13 to 34 µM)
NC(=O)c1c(F)ccc(OC(CCO)c2nc(-c3ccc(C(F)(F)F)cc3)c(Br)o2)c1F (stereo not shown) [Compound 73, 3-(1-(5-bromo-4-(4-(trifluoromethyl)phenyl)oxazol-2-yl)-3-hydroxypropoxy)-2,6-difluorobenzamide] | 0.25 to 1 µg/mL (≈ 0.48 to 1.92 µM)
NC(=O)c1c(F)ccc(OC(CC(=O)O)c2nc(-c3ccc(C(F)(F)F)cc3)c(Br)o2)c1F (stereo not shown) [Compound 77, 3-(5-bromo-4-(4-(trifluoromethyl)phenyl)oxazol-2-yl)-3-(3-carbamoyl-2,4-difluorophenoxy)propanoic acid] | > 16 µg/mL
